Source: the NIST ThermoML archive (doi:10.1016/j.jct.2013.10.023)
Numbers after ± are expanded uncertainties.

How the values were obtained:
[1] = 101 kPa, Liquid; for viscosity: Capillary tube (Ostwald / Ubbelohde) method; for mass density: Vibrating tube method
[2] = xn = mol fraction of the nth substance listed; conditions: 101 kPa, Liquid, x2 = 0; for viscosity: Capillary tube (Ostwald / Ubbelohde) method; for mass density: Vibrating tube method

Row | SMILES | viscosity ([1]; 298.15 K) [mPa·s] | mass density ([1]; 298.15 K) [kg/m3] | viscosity ([1]; 308.15 K) [mPa·s] | mass density ([1]; 308.15 K) [kg/m3] | viscosity ([1]; 318.15 K) [mPa·s] | mass density ([1]; 318.15 K) [kg/m3] | viscosity ([1]; 328.15 K) [mPa·s] | mass density ([1]; 328.15 K) [kg/m3] | viscosity ([1]; 338.15 K) [mPa·s] | mass density ([1]; 338.15 K) [kg/m3] | viscosity ([1]; 348.15 K) [mPa·s] | mass density ([1]; 348.15 K) [kg/m3] | viscosity ([1]; 358.15 K) [mPa·s] | mass density ([1]; 358.15 K) [kg/m3] | also measured
1 | CC(=O)[O-].CCn1cc[n+](C)c1 [1-ethyl-3-methylimidazolium acetate] | 138.4 ± 3.6 | 1099.04 ± 10 | 76.1 ± 1.6 | 1092.95 ± 10 | 45.9 ± 0.96 | 1086.88 ± 10 | 30.1 ± 0.63 | 1080.86 ± 10 | 20.8 ± 0.44 | 1074.86 ± 10 | 14.28 ± 0.3 | 1071.37 ± 10 | 11.53 ± 0.24 | 1063.03 ± 10 | 
2 | CCOS(=O)(=O)[O-].CCn1cc[n+](C)c1 [1-ethyl-3-methylimidazolium ethyl sulfate] | 96.62 ± 2.2 | 1238.68 ± 10 | 60.41 ± 1.3 | 1231.92 ± 10 | 39.95 ± 0.84 | 1225.2 ± 10 | 28.91 ± 0.61 | 1218.51 ± 10 | 20.63 ± 0.43 | 1211.88 ± 10 | 15.66 ± 0.33 | 1208.19 ± 10 | 12.23 ± 0.26 | 1198.75 ± 10 | 
3 | CCOS(=O)(=O)[O-].CCn1cc[n+](C)c1 [1-ethyl-3-methylimidazolium ethyl sulfate] + CC(=O)[O-].CCn1cc[n+](C)c1 |  |  |  |  |  |  |  |  |  |  |  |  |  |  | viscosity ([2]; 298.15 K): 96.62 ± 2.2 mPa·s; mass density ([2]; 298.15 K): 1238.68 ± 10 kg/m3; viscosity ([2]; 308.15 K): 60.41 ± 1.3 mPa·s; mass density ([2]; 308.15 K): 1231.92 ± 10 kg/m3; viscosity ([2]; 318.15 K): 39.95 ± 0.84 mPa·s; mass density ([2]; 318.15 K): 1225.2 ± 10 kg/m3; viscosity ([2]; 328.15 K): 28.91 ± 0.61 mPa·s; mass density ([2]; 328.15 K): 1218.51 ± 10 kg/m3; viscosity ([2]; 338.15 K): 20.63 ± 0.43 mPa·s; mass density ([2]; 338.15 K): 1211.88 ± 10 kg/m3; viscosity ([2]; 348.15 K): 15.66 ± 0.33 mPa·s; mass density ([2]; 348.15 K): 1208.19 ± 10 kg/m3; viscosity ([2]; 358.15 K): 12.23 ± 0.26 mPa·s; mass density ([2]; 358.15 K): 1198.75 ± 10 kg/m3
